Consider 19 compounds from US9278942B2, “Non-steroidal compounds as androgen receptor modulators” (FLX Discoveries Oy, priority 2011, dated 2016).

In test [1] the target is T1, human AR (Homo sapiens, UniProt P10275).
T1 construct: expressed in transfected cells; host or cells: COS-1
T1 sequence (P10275 1-920): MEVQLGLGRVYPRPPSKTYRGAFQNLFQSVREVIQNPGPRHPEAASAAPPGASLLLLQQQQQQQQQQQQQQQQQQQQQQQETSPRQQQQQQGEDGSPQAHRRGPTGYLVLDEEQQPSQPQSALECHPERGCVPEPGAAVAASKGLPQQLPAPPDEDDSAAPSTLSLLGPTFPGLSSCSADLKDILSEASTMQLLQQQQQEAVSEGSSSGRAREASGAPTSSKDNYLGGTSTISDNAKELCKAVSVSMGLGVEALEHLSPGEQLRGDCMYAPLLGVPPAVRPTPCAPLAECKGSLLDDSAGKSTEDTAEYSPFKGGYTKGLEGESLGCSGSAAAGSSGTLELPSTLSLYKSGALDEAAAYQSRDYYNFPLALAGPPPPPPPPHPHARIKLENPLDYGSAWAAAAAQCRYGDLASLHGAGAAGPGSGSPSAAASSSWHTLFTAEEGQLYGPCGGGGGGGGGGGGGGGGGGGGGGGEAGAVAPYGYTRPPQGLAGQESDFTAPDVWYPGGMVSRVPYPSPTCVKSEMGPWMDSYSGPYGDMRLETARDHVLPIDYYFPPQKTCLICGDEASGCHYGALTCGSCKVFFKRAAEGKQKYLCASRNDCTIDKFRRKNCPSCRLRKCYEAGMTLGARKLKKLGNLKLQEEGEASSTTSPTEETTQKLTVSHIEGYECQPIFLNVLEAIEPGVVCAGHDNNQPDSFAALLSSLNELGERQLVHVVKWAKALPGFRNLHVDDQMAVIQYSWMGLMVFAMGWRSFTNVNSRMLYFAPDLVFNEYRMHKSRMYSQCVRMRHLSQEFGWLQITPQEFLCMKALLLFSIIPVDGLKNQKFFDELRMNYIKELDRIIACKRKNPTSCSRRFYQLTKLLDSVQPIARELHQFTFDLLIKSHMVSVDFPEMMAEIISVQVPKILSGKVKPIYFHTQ
The test can be described thus: Competitive AR binding assay against [3H]-R1881 in transiently transfected COS-1 cells. The settings on record: compound 13.4 μM, [3H]-R1881 1.34 nM, complete inhibition equals 100%; for inhibition at 13.4 µM: read-out: Inhibition of [3H]-R1881 binding at 1.34 nM ± S.D. In a few lines: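 COS-1 cells transfected 24 h with human AR vector, then after 36 h exposed 2 h at 37° C to compound at 10000-fold molar excess over 1.34 nM [3H]-R1881. Cell-bound radioactivity counted in triplicate; result given as % inhibition of labelled R1881 binding.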

The target of test [2] is T1, human AR. The test is described as follows: AR antagonism assay: inhibition of transcriptional activation of AR (Probasin-luc reporter, COS-1 cells). The settings on record: compound 10.0 μM, relative luciferase response: 100% for testosterone (no antiandrogenic effect), 0% for complete antagonism; for remaining activity at 10 µM: COS-1, 18 h, read-out: AR antagonism against 100 nM testosterone ± S.D. The class given is cell-based. How it is done:
Determination of the Antiandrogen Activity.
Testosterone was bought from Sigma Chemical Co. (St. Louis, Mo.) and hydroxyflutamide from Chemos GmbH. One day before transfection, COS-1 cells (from ATCC) were seeded into 1 ml of DMEM (Dulbecco's modified Eagle medium, Gibco) with 10% dextran-charcoal-treated fetal bovine serum and 0.25% (vol/vol) Penicillin-Streptomycin (Euroclone) at a density of 70×10^3 cells/well. After medium change to DMEM 2.5% FBS, the cells were transfected for 24 hours with 10 ng/well of human AR expression vector pSG5-hAR, 100 ng/well of reporter plasmid Probasin-luc, and 10 ng/well of control plasmid pCMV-β-gal by using the TransIT method (Micrus Bio TransIT LT1, Transfection Reagent). After the transfection, the cells received treatment of test compounds giving final concentration of 10 μM for each compound. In the antagonist test the wells were also treated with 100 nM final concentration of testosterone. After 18 hours, the cells were washed, lysed and assayed for luciferase and normalization for β-galactosidase activities and protein concentrations. The cells were washed with 100 μl of cold phosphate buffered saline (PBS) and lysed with 35 μl 1× Reporter lysis Buffer (Promega) and frozen (−70° C.) for 30 minutes. Cell lysates were placed in 1.5-ml propylene tubes and centrifuged at 13200×g for 5 minutes at room temperature. For β-galactosidase assay 10 μl of supernatant from each cell extract was transferred to a 96-well plate (96 well Elisa Microplates, PS, Microcon) and incubated for 10 minutes at 37° C. with 65 μl of reaction mixture consisting 0.76 μl 100×Mg-buffer, 12.5 μl ONPG (4 mg/ml), and 54.3 μl of sodium-phosphate buffer (pH 7). The reaction was stopped with treatment of 125 μl Na2CO3. For luciferase assay 10 μl of the supernatant was transferred to a 96-well plate (Greiner Microlon lumitrac 200) and treated with 30 μl of luciferase assay substrate solution (Promega Luciferase Assay System E1501). For the study of protein concentrations 5 μl of the supernatant was transferred to a 96-well plate (Elisa Microplates, PS, Microcon) and mixed with 200 μl of Bio-rad protein assay reagent. The luciferase activities were measured with Thermo Luminoscan Ascent scanner and the protein concentrations and β-galactosidase activities with Thermo Labsystem Multiscan Ex scanner. Also blank and control samples were measured. During the maintenance, transfection, and treatment with tested compounds the cells were incubated in humidified atmosphere with 5% carbon dioxide at 37° C.

Read-outs that look alike come from different tables or passages of the source.

Regarding `Fc1ccc(C2=NOC3CCCCCC23)c(C(F)(F)F)c1` (stereo not shown) [Example 40b, 3-(4-Fluoro-2-trifluoromethyl-phenyl)-4,5,6,7,8,8a-hexahydro-3aH-cyclohepta[d]isoxazole], the “Inhibition of [3H]-R1881 binding at 1.34 nM ± S.D.” value (from here on “Inhibition of [3H]-R1881 binding”) at human AR [1] (Table 2) is reported as 92.2 ± 0.7%. For the same compound, the “AR antagonism against 100 nM testosterone ± S.D.” value (“AR antagonism” for short) on human AR [2] was found to be 15.6 ± 0.8%.
Take `O=[N+]([O-])c1ccc(C2=NOC3CCCCCC23)cc1C(F)(F)F` (stereo not shown) [Example 41ab, 3-(4-Nitro-3-trifluoromethyl-phenyl)-4,5,6,7,8,8a-hexahydro-3aH-cyclohepta[d]isoxazole]: on human AR [1] (Table 2), the inhibition at 13.4 µM was 97.8 ± 0.5%. The remaining activity at 10 µM at human AR [2] is 10.1 ± 0.9%.
Take `O=[N+]([O-])c1ccc(C2=NOC3CCCCCC23)c(C(F)(F)F)c1` (stereo not shown) [Example 42a, 3-(4-Nitro-2-trifluoromethyl-phenyl)-4,5,6,7,8,8a-hexahydro-3aH-cyclohepta[d]isoxazole]: the inhibition at 13.4 µM came out at 90.5 ± 3.1% at human AR [1] (Table 2) and 91.4 ± 3.8% at human AR [1] (Table 3). In addition, the remaining activity at 10 µM on human AR [2] stood at 17.4 ± 1.5%.
`O=[N+]([O-])c1ccc(C2=NOC3CCCCCC23)c(C(F)(F)F)c1` (stereo not shown) [Example 42b, 3-(4-Nitro-2-trifluoromethyl-phenyl)-4,5,6,7,8,8a-hexahydro-3aH-cyclohepta[d]isoxazole]: the “Inhibition of [3H]-R1881 binding” value is given as 89.5 ± 2.0% on human AR [1] (Table 2) and 89.3 ± 4.8% at human AR [1] (Table 3). In addition, on human AR [2], the “AR antagonism” value is 25.5 ± 1.5%.
Take `Fc1ccc(C2=NOC3CCCCCCC23)cc1C(F)(F)F` (stereo not shown) [Example 43a, 3-(4-Fluoro-3-trifluoromethyl-phenyl)-3a,4,5,6,7,8,9,9a-octahydro-cycloocta[d]isoxazole]: at human AR [1] (Table 2), the “Inhibition of [3H]-R1881 binding” value was 66.3 ± 9.8%. In addition, the remaining activity at 10 µM on human AR [2] stood at 57.7 ± 9.9%.
As for `Fc1ccc(C2=NOC3CCCCCCC23)cc1C(F)(F)F` (stereo not shown) [Example 43b, 3-(4-Fluoro-3-trifluoromethyl-phenyl)-3a,4,5,6,7,8,9,9a-octahydro-cycloocta[d]isoxazole], the inhibition at 13.4 µM at human AR [1] (Table 2) came to 76 ± 0.3%. Moreover, the “AR antagonism” value on human AR [2] was 56.6 ± 1.4%.
On to `Fc1ccc(C2=NOC3CCCCCCC23)c(C(F)(F)F)c1` (stereo not shown) [Example 44a, 3-(4-Fluoro-2-trifluoromethyl-phenyl)-3a,4,5,6,7,8,9,9a-octahydro-cycloocta[d]isoxazole], for which the inhibition at 13.4 µM at human AR [1] (Table 3) turned out to be 90.3 ± 2.7%. For the same compound, the remaining activity at 10 µM at human AR [2] was 19.8 ± 0.5%.
On to `Fc1ccc(C2=NOC3CCCCCCC23)c(C(F)(F)F)c1` (stereo not shown) [Example 44b, 3-(4-Fluoro-2-trifluoromethyl-phenyl)-3a,4,5,6,7,8,9,9a-octahydro-cycloocta[d]isoxazole], for which, on human AR [1] (Table 3), the “Inhibition of [3H]-R1881 binding” value is 85.2 ± 3.8%. For the same compound, at human AR [2], the “AR antagonism” value is reported as 35.6 ± 7.8%.
As to `O=[N+]([O-])c1ccc(C2=NOC3CCCCCCC23)cc1C(F)(F)F` (stereo not shown) [Example 45ab, 3-(4-Nitro-3-trifluoromethyl-phenyl)-3a,4,5,6,7,8,9,9a-octahydro-cycloocta[d]isoxazole], the inhibition at 13.4 µM on human AR [1] (Table 3) was determined as 85.7 ± 3.8%. The remaining activity at 10 µM on human AR [2] amounted to 27.8 ± 1%.
Taken in the same sequence, the figures for `O=[N+]([O-])c1ccc(C2=NOC3CCCCCCC23)c(C(F)(F)F)c1` (stereo not shown) [Example 46a, 3-(4-Nitro-2-trifluoromethyl-phenyl)-3a,4,5,6,7,8,9,9a-octahydro-cycloocta[d]isoxazole] were 86.4 ± 1.8% and 3.1 ± 1.7%.
Take `O=[N+]([O-])c1ccc(C2=NOC3CCCCCCC23)c(C(F)(F)F)c1` (stereo not shown) [Example 46b, 3-(4-Nitro-2-trifluoromethyl-phenyl)-3a,4,5,6,7,8,9,9a-octahydro-cycloocta[d]isoxazole]: the “Inhibition of [3H]-R1881 binding” value at human AR [1] (Table 3) was determined as 90.4 ± 3.8%. In addition, the “AR antagonism” value on human AR [2] turned out to be 2.2 ± 0.8%.
As to `N#Cc1ccc(C2=NOC3CCCC23)c(C(F)(F)F)c1` (stereo not shown) [Example 86ab, 4-(4,5,6,6a-Tetrahydro-3aH-cyclopenta[d]isoxazol-3-yl)-3-trifluoromethyl-benzonitrile], the inhibition at 13.4 µM at human AR [1] (Table 3) stood at 91.7 ± 1.7%. In addition, the remaining activity at 10 µM on human AR [2] was 29.3 ± 3.7%.
With `N#Cc1ccc(C2=NOC3CCCCC23)cc1C(F)(F)F` (stereo not shown) [Example 88ab, 4-(3a,4,5,6,7,7a-Hexahydro-benzo[d]isoxazol-3-yl)-2-trifluoromethyl benzonitrile], the inhibition at 13.4 µM at human AR [1] (Table 2) was determined as 99.2 ± 0.5%. At human AR [2], the “AR antagonism” value is listed as 9.2 ± 1.7%.
`N#Cc1ccc(C2=NOC3CCCCC23)c(C(F)(F)F)c1` (stereo not shown) [Example 89a, 4-(3a,4,5,6,7,7a-Hexahydro-benzo[d]isoxazol-3-yl)-3-trifluoromethyl benzonitrile]: the inhibition at 13.4 µM at human AR [1] (Table 2) was 78.8 ± 0.6%. Besides, the remaining activity at 10 µM on human AR [2] was found to be 27.5 ± 4.1%.
In the case of `N#Cc1ccc(C2=NOC3CCCCC23)c(C(F)(F)F)c1` (stereo not shown) [Example 89b, 4-(3a,4,5,6,7,7a-Hexahydro-benzo[d]isoxazol-3-yl)-3-trifluoromethyl benzonitrile], the “Inhibition of [3H]-R1881 binding” value on human AR [1] (Table 2) stood at 83.6 ± 0.9%. Also, at human AR [2], the “AR antagonism” value turned out to be 20.3 ± 1.7%.
In the case of `N#Cc1ccc(C2=NOC3CCCCCC23)cc1C(F)(F)F` (stereo not shown) [Example 90ab, 4-(4,5,6,7,8,8a-Hexahydro-3aH-cyclohepta[d]isoxazol-3-yl)-2-trifluoromethyl-benzonitrile], on human AR [1] (Table 2), the inhibition at 13.4 µM amounted to 98.7 ± 0.6%. In addition, the remaining activity at 10 µM at human AR [2] was 12.6 ± 0.7%.
For `N#Cc1ccc(C2=NOC3CCCCCC23)c(C(F)(F)F)c1` (stereo not shown) [Example 91a, 4-(4,5,6,7,8,8a-Hexahydro-3aH-cyclohepta[d]isoxazol-3-yl)-3-trifluoromethyl benzonitrile] the same measures were 85.4 ± 1.5% and 29.8 ± 3.6%.
`N#Cc1ccc(C2=NOC3CCCCCC23)c(C(F)(F)F)c1` (stereo not shown) [Example 91b, 4-(4,5,6,7,8,8a-Hexahydro-3aH-cyclohepta[d]isoxazol-3-yl)-3-trifluoromethyl benzonitrile]: on human AR [1] (Table 2), the “Inhibition of [3H]-R1881 binding” value was 87.4 ± 2.7%. Further, on human AR [2], the “AR antagonism” value turned out to be 27.2 ± 4.8%.
On to `N#Cc1ccc(C2=NOC3CCCCCCC23)cc1C(F)(F)F` (stereo not shown) [Example 92ab, 4-(3a,4,5,6,7,8,9,9a-Octahydro-cycloocta[d]isoxazol-3-yl)-2-trifluoromethyl-benzonitrile], for which the inhibition at 13.4 µM on human AR [1] (Table 2) stood at 85.8 ± 1.3%. In addition, at human AR [2], the remaining activity at 10 µM stood at 24 ± 1.7%.

As a reminder, the inhibition is the share of the control response that was lost under treatment.
